Among the data in PubChem BioAssay (NCI) are GI50 and TGI values, retold here.

The structures appear in SMILES notation. Where “and” joins values, the source holds several entries; their conditions need not be identical. Equal entries are not always repeated.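 96-well plates; 48 h exposure; 5 concentrations. Endpoints by linear interpolation between flanking doses. Not reached: highest tested concentration assigned. The concentration for 50% growth inhibition is given as GI50. The concentration for full growth arrest is given as TGI.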

Among the test systems are SNB-75 CNS; CCRF-CEM leukemia; OVCAR-5 ovarian; HL-60(TB) leukemia; SR leukemia; OVCAR-4 ovarian; NCI-H522 lung; OVCAR-3 ovarian; UO-31 renal; HCT-116 colon.
Holding throughout (assay): inhibition of tumour cell growth, NCI panel, 48 h

For the compound `C[C@]12CCC(=O)C=C1CC[C@@H]1[C@@H]2CC[C@]2(C)C(=O)/C(=C/c3cccc(OCCN4CCOCC4)c3)C[C@@H]12`, the GI50 was 12 µM in the experiment with SNB-75 CNS; 4.49 µM in the experiment on CCRF-CEM leukemia; 13.4 µM with OVCAR-5 ovarian; 2.13 µM in the experiment on HL-60(TB) leukemia; 4.72 µM in the experiment with SR leukemia; 3.01 µM in the experiment with OVCAR-4 ovarian. The GI50 in the experiment on NCI-H522 lung is 8 µM; in the experiment on OVCAR-3 ovarian, 3.91 µM; with UO-31 renal, 12.1 µM; in the experiment on HCT-116 colon it was 3.14 µM. The TGI with SNB-75 CNS was 31.9 µM; in the experiment with CCRF-CEM leukemia it was 28.6 µM; in the experiment on OVCAR-5 ovarian, 34 µM; in the experiment on HL-60(TB) leukemia, 5.82 µM; with SR leukemia, 22 µM; in the experiment on OVCAR-4 ovarian, > 100 µM. The TGI was determined as 26.4 µM in the experiment with NCI-H522 lung, 16 µM in the experiment on OVCAR-3 ovarian, 30 µM in the experiment on UO-31 renal and 13.4 µM in the experiment with HCT-116 colon.

Consider `COC(=O)C1=CC2OC1(C)C1(CC1)C2=O` (stereo not drawn), for which the TGI was 50 µM in the experiment on SNB-75 CNS; 23.2 µM in the experiment with CCRF-CEM leukemia; 57.4 µM in the experiment with OVCAR-5 ovarian; 16.1 µM in the experiment on HL-60(TB) leukemia; 34.6 µM with SR leukemia; 24 µM in the experiment with OVCAR-4 ovarian. The TGI with NCI-H522 lung worked out at 20.7 µM; in the experiment on OVCAR-3 ovarian, 31.2 µM; in the experiment with UO-31 renal, 50 µM; in the experiment on HCT-116 colon, 27.8 µM.

With `O=C(O)CCC1CCC(c2cc(F)ccc2F)(S(=O)(=O)c2ccc(Cl)cc2)CC1` (stereo not drawn), the GI50 in the experiment with SNB-75 CNS is 15.9 µM and > 72.2 µM; in the experiment on CCRF-CEM leukemia it was 29 µM and > 100 µM; with OVCAR-5 ovarian it was 92.2 µM and > 100 µM; in the experiment with HL-60(TB) leukemia, 31.3 µM and > 81 µM; in the experiment with SR leukemia it was 25.5 µM and > 47.3 µM; with OVCAR-4 ovarian, 30.5 µM and > 65.6 µM. For the same compound, the GI50 in the experiment on NCI-H522 lung is 20.7 µM and > 100 µM; in the experiment on OVCAR-3 ovarian, 22.7 µM and > 100 µM; in the experiment on UO-31 renal it was 22.7 µM and > 100 µM; in the experiment with HCT-116 colon, 23.5 µM and > 100 µM. The TGI in the experiment with SNB-75 CNS is 55.8 µM and > 100 µM; with CCRF-CEM leukemia it was > 100 µM; in the experiment on OVCAR-5 ovarian it was > 100 µM; with HL-60(TB) leukemia, > 100 µM; in the experiment on SR leukemia it was > 100 µM; with OVCAR-4 ovarian, > 100 µM. For the same compound, the TGI was 79.7 µM and > 100 µM in the experiment with NCI-H522 lung; 63.5 µM and > 100 µM in the experiment on OVCAR-3 ovarian; > 100 µM in the experiment with UO-31 renal; > 100 µM in the experiment with HCT-116 colon.

`O=C1/C(=C/C(Cl)=C/c2ccccc2)SC(=S)N1CCc1ccc(O)cc1`: the GI50 was 1.31 µM with SNB-75 CNS; 0.441 µM in the experiment with CCRF-CEM leukemia; 2.02 µM with OVCAR-5 ovarian; 1.5 µM in the experiment with HL-60(TB) leukemia; 0.86 µM with SR leukemia; 3.19 µM in the experiment with OVCAR-4 ovarian. In addition, the GI50 is 1.42 µM in the experiment with NCI-H522 lung, 1.91 µM in the experiment with OVCAR-3 ovarian, 1.29 µM with UO-31 renal and 1.01 µM in the experiment with HCT-116 colon. The TGI with SNB-75 CNS was 5.62 µM; in the experiment with CCRF-CEM leukemia it was > 100 µM; in the experiment with OVCAR-5 ovarian it was 3.91 µM; with HL-60(TB) leukemia, > 100 µM; in the experiment with SR leukemia it was > 100 µM; in the experiment with OVCAR-4 ovarian it was 35.8 µM. In addition, the TGI stood at 4.78 µM with NCI-H522 lung, 4.34 µM with OVCAR-3 ovarian, 2.69 µM in the experiment with UO-31 renal and 3.55 µM with HCT-116 colon.

Consider `[N-]=[N+]=CC(=O)OCC(N)C(=O)O` (stereo not drawn), for which the GI50 in the experiment with SNB-75 CNS was 2.68 µM; in the experiment with CCRF-CEM leukemia, 0.623 µM; in the experiment on OVCAR-5 ovarian it was 0.971 µM; with HL-60(TB) leukemia, 0.918 µM; in the experiment on SR leukemia, 0.638 µM; in the experiment on OVCAR-4 ovarian it was 4.29 µM. The GI50 in the experiment on NCI-H522 lung was 0.512 µM; with OVCAR-3 ovarian, 3.73 µM; in the experiment with UO-31 renal, 4.92 µM; in the experiment on HCT-116 colon, 0.448 µM. In addition, the TGI in the experiment with SNB-75 CNS, with CCRF-CEM leukemia, in the experiment on OVCAR-5 ovarian, in the experiment on HL-60(TB) leukemia, in the experiment on SR leukemia and in the experiment on OVCAR-4 ovarian was > 100 µM throughout. Moreover, the TGI with NCI-H522 lung, with OVCAR-3 ovarian, with UO-31 renal and with HCT-116 colon was > 100 µM each time.

`Cn1cnc2c(NCc3ccccc3)nc(NCCO)nc21`: the GI50 is 64.7 µM in the experiment on SNB-75 CNS; 143 µM in the experiment with CCRF-CEM leukemia; 73.2 µM with HL-60(TB) leukemia; 69.1 µM with SR leukemia; 110 µM in the experiment with OVCAR-4 ovarian; 90.6 µM in the experiment with NCI-H522 lung. Moreover, the GI50 in the experiment with OVCAR-3 ovarian is 33 µM and 115 µM; in the experiment on UO-31 renal it was 93.6 µM; with HCT-116 colon, 49.3 µM. Further, the TGI was 70.8 µM and 150 µM in the experiment on SNB-75 CNS; 98.2 µM and 353 µM with CCRF-CEM leukemia; > 217 µM with OVCAR-5 ovarian; > 73 µM and 220 µM with HL-60(TB) leukemia; > 87 µM and 237 µM in the experiment with SR leukemia; 339 µM in the experiment on OVCAR-4 ovarian. The TGI is 322 µM with NCI-H522 lung; > 406 µM with OVCAR-3 ovarian; > 96.2 µM and 420 µM in the experiment with UO-31 renal; > 96.5 µM and 321 µM in the experiment with HCT-116 colon.

With `O=C(Nc1ccc(Br)c(Cl)c1)c1cc(F)ccc1O`, the GI50 in the experiment on SNB-75 CNS was 0.591 µM; with CCRF-CEM leukemia, 1.43 µM; in the experiment on OVCAR-5 ovarian, 1.71 µM; in the experiment on HL-60(TB) leukemia, 0.97 µM; with SR leukemia, 0.547 µM; in the experiment on OVCAR-4 ovarian, 0.974 µM. The GI50 in the experiment on NCI-H522 lung is 0.238 µM; in the experiment on OVCAR-3 ovarian, 0.481 µM; with UO-31 renal, 0.153 µM; with HCT-116 colon, 0.423 µM. Further, the TGI in the experiment with SNB-75 CNS was 4.53 µM; with CCRF-CEM leukemia, > 15.1 µM; in the experiment on OVCAR-5 ovarian it was > 50 µM; in the experiment with HL-60(TB) leukemia it was 2.83 µM; in the experiment with OVCAR-4 ovarian it was > 50 µM; in the experiment on NCI-H522 lung, 2.93 µM. Further, the TGI in the experiment with OVCAR-3 ovarian is > 50 µM; with UO-31 renal it was 1.89 µM; in the experiment on HCT-116 colon, 2.08 µM.

Take `CN1CCN(Cc2ccc(NC(=O)c3cncc(C#Cc4c(N)ncc5cc(F)ccc45)c3)cc2C(F)(F)F)CC1`: the GI50 in the experiment with SNB-75 CNS was 2.02 µM; with CCRF-CEM leukemia, 1.04 µM; in the experiment with OVCAR-5 ovarian it was 1.06 µM; with HL-60(TB) leukemia, 0.289 µM; in the experiment with SR leukemia, 1.47 µM; in the experiment on OVCAR-4 ovarian it was 0.489 µM. Moreover, the GI50 in the experiment on NCI-H522 lung is 2.01 µM; in the experiment with OVCAR-3 ovarian it was 2.43 µM; in the experiment with UO-31 renal it was 1.44 µM; in the experiment on HCT-116 colon, 0.595 µM. In addition, the TGI in the experiment on SNB-75 CNS was determined as 7.84 µM; with CCRF-CEM leukemia, 2.65 µM; in the experiment on OVCAR-5 ovarian, 3.55 µM; in the experiment with HL-60(TB) leukemia, 1.49 µM; in the experiment on SR leukemia, 50 µM; in the experiment on OVCAR-4 ovarian it was 1.38 µM. For the same compound, the TGI in the experiment with NCI-H522 lung was determined as 5.45 µM; in the experiment with OVCAR-3 ovarian it was 4.98 µM; in the experiment with UO-31 renal, 5.06 µM; in the experiment with HCT-116 colon it was 1.26 µM.

In the case of `CCOC(=O)c1cc2ncccc2c2ccccc12`, the TGI in the experiment with SNB-75 CNS, in the experiment with CCRF-CEM leukemia, in the experiment on OVCAR-5 ovarian, in the experiment with HL-60(TB) leukemia, in the experiment with SR leukemia and in the experiment on OVCAR-4 ovarian was > 100 µM throughout. The TGI in the experiment with NCI-H522 lung, in the experiment with OVCAR-3 ovarian, in the experiment with UO-31 renal and in the experiment with HCT-116 colon was > 100 µM in each case.

As for `O=C(O)CC1(C(=O)O)CCCCC1`, the TGI with SNB-75 CNS, in the experiment on CCRF-CEM leukemia, in the experiment on OVCAR-5 ovarian, with HL-60(TB) leukemia, in the experiment on SR leukemia and in the experiment with OVCAR-4 ovarian was > 100 µM throughout. For the same compound, the TGI in the experiment with NCI-H522 lung, in the experiment on OVCAR-3 ovarian, in the experiment with UO-31 renal and with HCT-116 colon was > 100 µM throughout.

For the compound `Nc1nc(N)c(-c2ccc(Cl)cc2)c(CCC(=O)Nc2cccc(C(F)(F)F)c2)n1`, the TGI in the experiment on SNB-75 CNS, with CCRF-CEM leukemia, in the experiment on OVCAR-5 ovarian, in the experiment on HL-60(TB) leukemia, in the experiment on SR leukemia and with OVCAR-4 ovarian was > 100 µM throughout. Moreover, the TGI with NCI-H522 lung, with OVCAR-3 ovarian, with UO-31 renal and with HCT-116 colon was > 100 µM in each case.

In the case of `CN(CCC(=O)O)S(=O)(=O)c1ccccc1`, the TGI in the experiment on SNB-75 CNS, in the experiment with CCRF-CEM leukemia, in the experiment with OVCAR-5 ovarian, in the experiment on HL-60(TB) leukemia, with SR leukemia and with OVCAR-4 ovarian was > 100 µM throughout. Further, the TGI in the experiment with NCI-H522 lung, in the experiment on OVCAR-3 ovarian, in the experiment with UO-31 renal and in the experiment with HCT-116 colon was > 100 µM throughout.
